Test results reported in US8980926B2, “2-aminoindole compounds and methods for the treatment of malaria” (Genzyme Corporation, priority 2009, dated 2015).
pIC50: −log10 of the molar value. Where two headings read alike, the source gives them in different places.

What was measured:
[1] = test system: P. falciparum strain 3D7; assay: In vitro potency against P. falciparum strain 3D7 (SYBR green/DAPI); format: cell-based; conditions: Plasmodium falciparum; for IC50: read-out: Potency (IC50; nM) Plasmodium spp. Pf 3D7; for pIC50: reductions in parasitemia, read-out: IC50 values
[2] = test system: Plasmodium falciparum strain Dd2; assay: In vitro potency against P. falciparum strain Dd2; format: cell-based; conditions: read-out: Potency (IC50; nM) Plasmodium spp. Pf Dd2
[3] = test system: P. knowlesi strain H1; assay: In vitro potency against P. knowlesi H1 in Rhesus blood cells (3H-hypoxanthine incorporation); format: cell-based; conditions: Plasmodium knowlesi, in Macaca mulatta, read-out: Potency (IC50; nM) Plasmodium spp. Pk H1
Experimental: Selected compounds were tested against P. knowlesi H1 strain parasites cultured in Rhesus blood cells as a surrogate for P. vivax infections using the method of Kocken and coworkers (Kocken, C. H., H. Ozwara, A. van der Wel, A. L. Beetsma, J. M. Mwenda, and A. W. Thomas. 2002. Plasmodium knowlesi provides a rapid in vitro and in vivo transfection system that enables double-crossover gene knockout studies. Infect Immun 70:655-660). Briefly, P. knowlesi were cultured in 2% Rhesus macaque erythrocytes (New England Primate Research Center) in RPMI culture media containing 10% Human O+ serum (Interstate Blood Bank). Schizont stage parasites were purified by floatation in 60% Percoll (GE life sciences) and allowed to reinvade to generate a synchronous population of ring stage parasites. Drug assays were performed by plating ring stage parasites at 0.5% parasitemia in triplicate, in RPMI containing 2.5 μg/ml hypoxanthine. Parasites were incubated for 24 hours with serially diluted test compounds. After 24 hours, thin smears were made to confirm that reinvasion had occurred, 0.5 μCi ^3H-labeled hypoxanthine (Perkin Elmer) were added to each well, and parasites were allowed to progress through S-phase to early schizonts. Cells were then harvested via glass filter plates and ^3H incorporation was measured by scintillation counting. Values were normalized to percentage of controls containing no drug, and IC50 values were generated (GraphPad Prism®).

[4] = Mammalian cytotoxicity, dermal fibroblast; format: cell-based; conditions: human, normal human dermal fibroblasts (Clonetics #CC-2509); read-out: Selectivity, Mammalian cytotoxicity (IC50; μM) Dermal Fibroblast
[5] = Mammalian cytotoxicity, kidney epithelial; format: cell-based; conditions: normal human renal proximal tubule cells; read-out: Selectivity, Mammalian cytotoxicity (IC50; μM) Kidney epithelial
[6] = Erythrocyte lysis; format: cell-based; conditions: erythrocytes, read-out: Selectivity, Mammalian cytotoxicity (IC50; μM) Eryth. Lysis
[7] = target: T1, hERG (Homo sapiens, UniProt Q12809); assay: hERG in Chinese hamster ovary cells; format: cell-based
T1 construct: expressed in transfected cells; host or cells: Chinese hamster ovary cells (from the earlier reading's assay name)
T1 sequence (Q12809 whole entry): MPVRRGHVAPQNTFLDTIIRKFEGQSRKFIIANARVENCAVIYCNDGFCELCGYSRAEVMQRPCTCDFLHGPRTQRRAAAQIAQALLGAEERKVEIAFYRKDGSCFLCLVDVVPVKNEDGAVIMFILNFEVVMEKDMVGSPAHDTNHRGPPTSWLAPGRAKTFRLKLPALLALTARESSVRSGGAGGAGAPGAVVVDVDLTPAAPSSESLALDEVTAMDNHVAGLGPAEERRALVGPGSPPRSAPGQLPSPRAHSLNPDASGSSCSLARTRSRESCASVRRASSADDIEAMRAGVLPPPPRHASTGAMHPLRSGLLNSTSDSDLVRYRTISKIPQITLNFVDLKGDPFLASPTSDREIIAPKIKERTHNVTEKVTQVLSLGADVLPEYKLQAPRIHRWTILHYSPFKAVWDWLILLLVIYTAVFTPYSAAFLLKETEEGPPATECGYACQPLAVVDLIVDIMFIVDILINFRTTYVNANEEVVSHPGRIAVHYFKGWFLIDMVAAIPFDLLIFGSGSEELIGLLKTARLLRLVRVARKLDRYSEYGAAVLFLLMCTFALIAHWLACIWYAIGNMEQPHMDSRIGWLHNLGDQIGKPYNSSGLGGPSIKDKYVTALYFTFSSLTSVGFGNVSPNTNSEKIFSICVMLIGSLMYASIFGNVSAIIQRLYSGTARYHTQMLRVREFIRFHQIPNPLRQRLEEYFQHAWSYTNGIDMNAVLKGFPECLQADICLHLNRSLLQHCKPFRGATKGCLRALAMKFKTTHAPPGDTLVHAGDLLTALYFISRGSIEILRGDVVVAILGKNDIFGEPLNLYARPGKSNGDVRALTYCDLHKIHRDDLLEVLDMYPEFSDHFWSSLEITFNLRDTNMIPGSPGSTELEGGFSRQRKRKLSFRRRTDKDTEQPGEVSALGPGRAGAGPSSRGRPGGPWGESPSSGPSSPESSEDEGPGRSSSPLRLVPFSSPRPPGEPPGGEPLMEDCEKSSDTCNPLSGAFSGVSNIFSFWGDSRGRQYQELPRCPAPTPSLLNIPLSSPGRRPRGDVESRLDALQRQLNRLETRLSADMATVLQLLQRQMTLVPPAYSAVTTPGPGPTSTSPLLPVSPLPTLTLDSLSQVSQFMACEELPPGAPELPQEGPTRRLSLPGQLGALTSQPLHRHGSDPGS

[8] = test system: P. berghei N-clone; assay: In vivo efficacy against P. berghei in mice (4-day suppressive test, oral); set-up: species or system P. berghei in Swiss Albino mice; conditions: for Average Day of Recrudescence: Study Day; for No. Cured: animals cured/group; for Recrudescence (no. animals/total): no parasites on Day 5 but later regressed; for % Suppression Day 5: vs untreated controls; for % of group without parasites: FIG. 3D; for cures: doses of 100-200 mg/kg/day
From the text: Because of ethical issues and costs, the acute P. berghei model in rodents is considered the “gold standard” for assessing anti-malarial efficacy in animal models. This model is adapted from Peters' “4-day suppressive test” (Peters, W. 1987. Chemotherapy and Drug Resistance in Malaria, p. 102-115, 2ed, vol. 1. Academic Press, Orlando, Fla.; Peters, W. 1975. The chemotherapy of rodent malaria, XXII. The value of drug-resistant strains of P. berghei in screening for blood schizontocidal activity. Ann Trop Med Parasitol 69:155-171). All studies were conducted in accordance with the Guide for the Care and Use of Laboratory Animals (National-Research-Council. 1996. Guide for the Care and Use of Laboratory Animals. National Academy Press, Washington, D.C.) and the PHS guidelines. Animals were maintained according to NIH guidelines and were allowed to acclimatize for 1 week prior to the commencement of studies. On Day 0, groups of 4-6-week old female Swiss Albino mice (n=5) were infected by tail vein injection with 0.2 ml heparinized blood diluted to contain 1×10^7 N-clone parasites. The aminoindole analogs were formulated in 1.6% lactic acid mixed sodium salt, 1% Tween 80, 9% ethanol and 20% Cerestar (hydroxypropyl β-cyclodextrin; Wacker Chimie) and were administered by oral gavage. […] Animals in the Control-group received vehicle alone. Dose concentration and frequency of dosing were based upon preliminary tolerability/exposure studies. On Day 4 post-infection (5th day of assay) blood was collected by tail-nick, and thin smear microscope slides were prepared and stained using Diff Quick®. Parasitized erythrocytes were counted and compared with the total number of erythrocytes per microscopic field to determine the percent parasitemia. A minimum of 350 erythrocytes were counted. Animals showing no detectable parasites on Day 4 were examined every 2-3 days to determine whether cure was sterile. Animals with no detectable parasites 28 days after cessation of dosing (Study Day 33) were considered cured.

[9] = test system: P. berghei ANKA strain; assay: In vitro potency against P. berghei ANKA; format: cell-based; conditions: Plasmodium berghei, read-out: Potency (IC50; nM) Plasmodium spp. Pb ANKA
[10] = test system: P. berghei ANKA strain GFP MRA-865; assay: In vivo efficacy against P. berghei ANKA GFP in the humanized murine system; set-up: species or system P. berghei in mice; conditions: b.i.d.
[11] = test system: P. falciparum Pf3D7^0087/N9; assay: In vivo efficacy against P. falciparum in humanized mice; conditions: b.i.d.
[12] = test system: malaria; assay: In vivo efficacy in an animal (rodent) model of malaria (FIGS. 1, 2); conditions: for in vivo efficacy (treatment of malaria) / in vivo efficacy (reducing parasitemia): 50 mg/kg dose

| IC50 [1] [nM] | pIC50 [1] | IC50 [2] [nM] | IC50 [3] [nM] | IC50 [9] [nM] | SMILES | IC50 [4] [µM] | IC50 [5] [µM] | IC50 [6] [µM] | Selectivity, hERG (μM) CHO [7] [µM] | Average Day of Recrudescence ([8]; 100 mg/kg/day b.i.d. p.o.) [days] | No. Cured ([8]; 100 mg/kg/day b.i.d. p.o.) | Recrudescence (no. animals/total) ([8]; 100 mg/kg/day b.i.d. p.o.) | % Suppression Day 5 ([8]; 100 mg/kg/day b.i.d. p.o.) [%] | Average Day of Recrudescence ([8]; 200 mg/kg/day b.i.d. p.o.) [days] | No. Cured ([8]; 200 mg/kg/day b.i.d. p.o.) | Recrudescence (no. animals/total) ([8]; 200 mg/kg/day b.i.d. p.o.) | % Suppression Day 5 ([8]; 200 mg/kg/day b.i.d. p.o.) [%] | cures [8] | No. Cured ([8]; 50 mg/kg/day b.i.d. p.o.) | % Suppression Day 5 ([8]; 50 mg/kg/day b.i.d. p.o.) [%] | further results |
| --- | --- | --- | --- | --- | --- | --- | --- | --- | --- | --- | --- | --- | --- | --- | --- | --- | --- | --- | --- | --- | --- |
| 23 | 7.00 to 9.00 | 49 | 38 |  | CCOc1ccc(F)cc1C1(O)C(N)=Nc2ccc(Cl)cc21 (racemic) [Compound 142, 2-amino-5-chloro-3-(2-ethoxy-5-fluorophenyl)-3H-indol-3-ol] | > 195 | > 195 | > 125 | 21 | 11 | 0/5 | 1/5 | 99 | 13 | 3/5 | 1/5 | 99 | able to affect cures |  |  | % of group without parasites ([8]; day 5, 100/mg/kg/day): 20%; % of group without parasites ([8]; day 5, 200/mg/kg/day): 80%; % of group without parasites ([8]; day 30, 200/mg/kg/day): 60% |
| 18 | 7.00 to 9.00 | 58 |  | 342 | CCOc1ccc(F)cc1[C@]1(O)C(N)=Nc2ccc(Cl)cc21 (stereo in doubt) [Compound 266] | > 195 | > 195 | > 125 |  |  | 0/5 |  | 81 |  |  |  |  |  |  |  |  |
| 200 | 6.30 to 7.00 | 285 | 336 | 1560 | NC1=Nc2ccc(Cl)cc2C1(O)c1ccccc1 (stereo not drawn) [Compound 1] | > 242 | > 242 | > 155 | >25 |  |  |  |  |  |  |  |  |  | 0/5 | 100 | Average Day of Recrudescence ([8]; 50 mg/kg/day b.i.d. p.o.): 13 days; Recrudescence (no. animals/total) ([8]; 50 mg/kg/day b.i.d. p.o.): 5/5; in vivo efficacy (treatment of malaria) ([12]; IP administration for four days, FIG. 1): effectively treated malaria; in vivo efficacy, dose dependence ([12]; IP administration for four days at various doses, FIG. 1): dose-response relationship was observed |
| 665 | 6.30 to 7.00 | 1460 |  | 1360 | NC1=Nc2ccc(Cl)cc2[C@@]1(O)c1ccccc1 [Compound 2] | > 242 | > 242 | > 155 |  |  |  |  |  |  |  |  |  |  | 0/5 | 80 | in vivo efficacy (reducing parasitemia) ([12]; FIGS. 2A and 2B): efficacious for reducing parasitemia |
| 313 | 6.30 to 7.00 | 675 |  | 1690 | NC1=Nc2ccc(Cl)cc2[C@]1(O)c1ccccc1 [Compound 3] | > 242 | > 242 | > 155 |  |  | 5/5 |  | 100 |  |  |  |  | able to affect cures | 2/5 | 100 | Average Day of Recrudescence ([8]; 50 mg/kg/day b.i.d. p.o.): 12 days; Recrudescence (no. animals/total) ([8]; 50 mg/kg/day b.i.d. p.o.): 3/5; in vivo efficacy (reducing parasitemia) ([12]; FIGS. 2A and 2B): efficacious for reducing parasitemia; in vivo efficacy (treatment of malaria) ([12]; FIGS. 2A and 2B): effectively treated malaria |
| 183 | 7.00 to 9.00 | 455 | 318 |  | Cc1ccc2c(c1)C(O)(c1ccccc1)C(N)=N2 (stereo not drawn) [Compound 37] | > 62.5 | > 62.5 | > 168 |  | 17 | 3/5 | 2/5 | 100 |  | 5/5 |  | 100 | able to affect cures |  |  |  |
| 108 | 6.30 to 7.00 | 347 | 190 | 2990 | CC(C)C1(O)C(N)=Nc2ccc(Cl)cc21 (stereo not drawn) [Compound 39] | > 62.5 | > 62.5 | > 178 |  | 13 | 0/5 | 3/5 | 99 |  |  |  |  |  | 0/5 | 98 | Average Day of Recrudescence ([8]; 50 mg/kg/day b.i.d. p.o.): 10 days; Recrudescence (no. animals/total) ([8]; 50 mg/kg/day b.i.d. p.o.): 3/5 |
| 22 | 7.00 to 9.00 | 37 | 90 |  | CC(C)Oc1ccccc1C1(O)C(N)=Nc2ccc(Cl)cc21 (stereo not drawn) [Compound 146] | > 188 | > 188 | > 120 | 19 | 6 | 0/5) | 1/5 | 99 |  |  |  |  |  |  |  |  |
| 21 | 7.00 to 9.00 | 81 |  |  | COc1cc(C2(O)C(N)=Nc3ccc(Cl)cc32)c(OC)cn1 (stereo not drawn) [Compound 202] | > 195 | > 195 | > 125 |  |  | 0/5 |  | 95 | 17 | 0/5 | 2/5 | 98 |  |  |  |  |

| SMILES | IC50 [1] [nM] | pIC50 [1] | IC50 [2] [nM] | IC50 [3] [nM] | IC50 [9] [nM] | IC50 [4] [µM] | IC50 [5] [µM] | IC50 [6] [µM] | Selectivity, hERG (μM) CHO [7] [µM] | Average Day of Recrudescence ([8]; 100 mg/kg/day b.i.d. p.o.) [days] | No. Cured ([8]; 100 mg/kg/day b.i.d. p.o.) | Recrudescence (no. animals/total) ([8]; 100 mg/kg/day b.i.d. p.o.) | % Suppression Day 5 ([8]; 100 mg/kg/day b.i.d. p.o.) [%] | Average Day of Recrudescence ([8]; 200 mg/kg/day b.i.d. p.o.) [days] | No. Cured ([8]; 200 mg/kg/day b.i.d. p.o.) | Recrudescence (no. animals/total) ([8]; 200 mg/kg/day b.i.d. p.o.) | % Suppression Day 5 ([8]; 200 mg/kg/day b.i.d. p.o.) [%] | cures [8] | No. Cured ([8]; 50 mg/kg/day b.i.d. p.o.) | % Suppression Day 5 ([8]; 50 mg/kg/day b.i.d. p.o.) [%] | further results |
| --- | --- | --- | --- | --- | --- | --- | --- | --- | --- | --- | --- | --- | --- | --- | --- | --- | --- | --- | --- | --- | --- |
| CCOc1ccc(F)cc1[C@@]1(O)C(N)=Nc2ccc(Cl)cc21 (stereo in doubt) [Compound 267] | 28 | 7.00 to 9.00 | 65 | 26 | 331 | > 195 | > 195 | > 125 | 36.6 | 14 | 0/5 | 2/4 | 95 | 12 | 3/5 | 2/5 | 100 | able to affect cures |  |  | ED50 P. berghei N-clone ([8]; b.i.d.): 32 mg/kg/day; ED90 P. berghei N-clone ([8]; b.i.d.): 68 mg/kg/day; ED50 P. berghei N-clone ([8]; t.i.d.): 35 mg/kg/day; ED90 P. berghei N-clone ([8]; t.i.d.): 58 mg/kg/day; ED50 P. berghei ANKA strain GFP MRA-865 [10]: 19 mg/kg/day; ED90 P. berghei ANKA strain GFP MRA-865 [10]: 30 mg/kg/day; ED50 P. falciparum Pf3D7^0087/N9 [11]: 40 mg/kg/day; ED90 P. falciparum Pf3D7^0087/N9 [11]: 74 mg/kg/day |
